Reference: patent US12077503B2, “Substituted cyclic amides and their use as herbicides” (FMC CORPORATION, priority 2015, dated 2024)

Assays:
Type in all cases: in vivo
[1] = test system: barnyardgrass (Echinochloa crus-galli); assay: Test A preemergence; conditions: Echinochloa crus-galli, pre-emergence, 240 h, Preemergence
Summary of the method: (§1)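 Preemergence soil spray on seeded pots or post-emergence spray on 1–2 leaf plants, in loam–sand blend. Greenhouse ~10 d. Visual rating 0–100 against untreated plants.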

[2] = test system: ragweed (common ragweed, Ambrosia elatior); assay: Test A preemergence; conditions: Ambrosia artemisiifolia, pre-emergence, 240 h, Preemergence
Summary of the method: as §1

[3] = test system: Kochia (Kochia scoparia); assay: Test A preemergence; conditions: Bassia scoparia, pre-emergence, 240 h, Preemergence
Summary of the method: as §1

[4] = test system: ryegrass, Italian (Italian ryegrass, Lolium multiflorum); assay: Test A preemergence; conditions: Lolium multiflorum, pre-emergence, 240 h, Preemergence
Summary of the method: as §1

[5] = test system: pigweed (Amaranthus retroflexus); assay: Test A preemergence; conditions: Amaranthus retroflexus, pre-emergence, 240 h, Preemergence
[6] = test system: barnyardgrass (Echinochloa crus-galli); assay: Test A postemergence; conditions: Echinochloa crus-galli, post-emergence, 240 h, Postemergence
Summary of the method: as §1

[7] = test system: corn (Zea mays); assay: Test A postemergence; conditions: Zea mays, post-emergence, 240 h, Postemergence, read-out: Corn plant response rating (0 to 100 scale)
Summary of the method: as §1

[8] = test system: ragweed (common ragweed, Ambrosia elatior); assay: Test A postemergence; conditions: Ambrosia artemisiifolia, post-emergence, 240 h, Postemergence, read-out: Ragweed plant response rating (0 to 100 scale)
Summary of the method: as §1

[9] = test system: wheat (Triticum aestivum); assay: Test A postemergence; conditions: Triticum aestivum, post-emergence, 240 h, Postemergence, read-out: Wheat plant response rating (0 to 100 scale)
Summary of the method: as §1

[10] = test system: Kochia (Kochia scoparia); assay: Test A postemergence; conditions: Bassia scoparia, post-emergence, 240 h, Postemergence, read-out: Kochia plant response rating (0 to 100 scale)
Summary of the method: as §1

[11] = test system: ryegrass, Italian (Italian ryegrass, Lolium multiflorum); assay: Test A postemergence; conditions: Lolium multiflorum, post-emergence, 240 h, Postemergence, read-out: Ryegrass, Italian plant response rating (0 to 100 scale)
Summary of the method: as §1

[12] = test system: blackgrass (Alopecurus myosuroides); assay: Test A postemergence; conditions: Alopecurus myosuroides, post-emergence, 240 h, Postemergence, read-out: Blackgrass plant response rating (0 to 100 scale)
Summary of the method: as §1

[13] = test system: Galium (catchweed bedstraw, Galium aparine); assay: Test A postemergence; conditions: Galium, post-emergence, 240 h, Postemergence, read-out: Galium plant response rating (0 to 100 scale)
Summary of the method: as §1

[14] = test system: giant foxtail (Setaria faberii); assay: Test A postemergence; conditions: Setaria faberi, post-emergence, 240 h, Postemergence, read-out: Foxtail, Giant plant response rating (0 to 100 scale)
Summary of the method: as §1

[15] = test system: pigweed (Amaranthus retroflexus); assay: Test A postemergence; conditions: Amaranthus retroflexus, post-emergence, 240 h, Postemergence, read-out: Pigweed plant response rating (0 to 100 scale)
Summary of the method: as §1

[16] = 125 g ai/ha, visual rating about 10 d after treatment
[17] = 31 g ai/ha, 0 is no effect, 100 is complete control

## CN1C[C@H](c2csc3c2CCC(F)(F)C3)[C@@H](C(=O)Nc2ccccc2S(C)(=O)=O)C1=O (racemic) [Compound 1367]
[1]; 31 g ai/ha, 0 to 100 scale where 0 is no effect and 100 is complete control, read-out: Barnyardgrass plant response rating
  pest or weed control at 31 g/ha: 0%
[1]; 125 g ai/ha, 0 to 100 scale (0 no effect, 100 complete control), read-out: Plant response rating, Barnyardgrass
  pest or weed control at 125 g/ha: 80%
[2]; 31 g ai/ha, 0 to 100 scale where 0 is no effect and 100 is complete control, read-out: Ragweed plant response rating
  pest or weed control at 31 g/ha: 0%
[2]; 125 g ai/ha, 0 to 100 scale (0 no effect, 100 complete control), read-out: Plant response rating, Ragweed
  pest or weed control at 125 g/ha: 0%
[3]; 31 g ai/ha, 0 to 100 scale where 0 is no effect and 100 is complete control, read-out: Kochia plant response rating
  pest or weed control at 31 g/ha: 0%
[3]; 125 g ai/ha, 0 to 100 scale (0 no effect, 100 complete control), read-out: Plant response rating, Kochia
  pest or weed control at 125 g/ha: 0%
[4]; 31 g ai/ha, 0 to 100 scale where 0 is no effect and 100 is complete control, read-out: Ryegrass, Italian plant response rating
  pest or weed control at 31 g/ha: 0%
[4]; 125 g ai/ha, 0 to 100 scale (0 no effect, 100 complete control), read-out: Plant response rating, Ryegrass, Italian
  pest or weed control at 125 g/ha: 0%
[5]; 31 g ai/ha, 0 to 100 scale where 0 is no effect and 100 is complete control, read-out: Pigweed plant response rating
  pest or weed control at 31 g/ha: 0%
[5]; 125 g ai/ha, 0 to 100 scale (0 no effect, 100 complete control), read-out: Plant response rating, Pigweed
  pest or weed control at 125 g/ha: 0%
[6]; 125 g ai/ha, visual rating about 10 d after treatment, read-out: Barnyardgrass plant response rating (0 to 100 scale, 0 no effect, 100 complete control)
  pest or weed control at 125 g/ha: 30%
[6]; 31 g ai/ha, 0 is no effect, 100 is complete control, read-out: Barnyardgrass plant response rating (0 to 100 scale)
  pest or weed control at 31 g/ha: 0%
[7]; [16]
  plant injury at 125 g/ha: 0%
[7]; [17]
  plant injury at 31 g/ha: 0%
[8]; [16]
  pest or weed control at 125 g/ha: 0%
[8]; [17]
  pest or weed control at 31 g/ha: 0%
[9]; [16]
  plant injury at 125 g/ha: 0%
[9]; [17]
  plant injury at 31 g/ha: 0%
[10]; [16]
  pest or weed control at 125 g/ha: 0%
[10]; [17]
  pest or weed control at 31 g/ha: 0%
[11]; [16]
  pest or weed control at 125 g/ha: 0%
[11]; [17]
  pest or weed control at 31 g/ha: 0%
[12]; [16]
  pest or weed control at 125 g/ha: 0%
[12]; [17]
  pest or weed control at 31 g/ha: 0%
[13]; [16]
  pest or weed control at 125 g/ha: 0%
[13]; [17]
  pest or weed control at 31 g/ha: 0%
[14]; [16]
  pest or weed control at 125 g/ha: 30%
[14]; [17]
  pest or weed control at 31 g/ha: 0%
[15]; [16]
  pest or weed control at 125 g/ha: 20%
[15]; [17]
  pest or weed control at 31 g/ha: 0%
